The structures appear in SMILES notation. Several values for one entry are separate records, joined by “and”; a condition that tells them apart may be missing. Equal entries are not always repeated. Toxic doses and inconclusive results are not listed.

For 18 molecules, T/C results are on record in PubChem BioAssay AID328 (DTP/NCI, 2004).

This test relates to BDF1 mice, P388 leukemia ip, median survival T/C. Kind of test: NCI In Vivo Anticancer Drug Screen. Data for tumor model P388 Leukemia (intraperitoneal) in B6D2F1 (BDF1) mice. The following applies: endpoint: median survival time, higher = longer survival. The procedure, abridged:
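Steps: implant the tumour, treat one group with compound and another with vehicle, record survival, then divide treated by control.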

Where [1] appears, read: dose: 3.0 mg/kg/injection, schedule: Q01DX009 (ip), vehicle: Klucel (hydroxypropylcellulose) (HPC).
[2] abbreviates: dose: 50.0 mg/kg/injection, schedule: Q01DX009 (ip), vehicle: saline with Tween-80.
[3] abbreviates: dose: 100.0 mg/kg/injection, schedule: Q01DX009 (ip), vehicle: saline with Tween-80.
Setting [4] is: dose: 200.0 mg/kg/injection, schedule: Q01DX009 (ip), vehicle: saline with Tween-80.
Setting [5] is: dose: 100.0 mg/kg/injection, schedule: Q04DX003 (ip), vehicle: saline with Tween-80.
Setting [6] is: dose: 200.0 mg/kg/injection, schedule: Q04DX003 (ip), vehicle: saline with Tween-80.
Setting [7] is: dose: 400.0 mg/kg/injection, schedule: Q04DX003 (ip), vehicle: saline with Tween-80.
Where [8] appears, read: dose: 6.25 mg/kg/injection, schedule: Q01DX009 (ip), vehicle: saline.
The mark [9] stands for this setting: dose: 12.5 mg/kg/injection, schedule: Q01DX009 (ip), vehicle: saline.

As to `Cn1ncc2c(N)ncnc21`, the T/C was 100 % of control (dose: 0.75 mg/kg/injection, schedule: Q01DX009 (ip), vehicle: Klucel (hydroxypropylcellulose) (HPC)); 100 % of control (dose: 1.5 mg/kg/injection, schedule: Q01DX009 (ip), vehicle: Klucel (hydroxypropylcellulose) (HPC)); 109 % of control under setting [1]; 122 % of control (dose: 6.0 mg/kg/injection, schedule: Q01DX009 (ip), vehicle: Klucel (hydroxypropylcellulose) (HPC)).

With `COc1cc(C=Nc2cc(Br)c(O)c(Br)c2)ccc1N(CCCl)CCCl`, the T/C reads like this: (dose: 3.5 mg/kg/injection, schedule: Q04DX003 (ip), vehicle: Klucel (hydroxypropylcellulose) (HPC)) 163 % of control; (dose: 5.44 mg/kg/injection, schedule: Q04DX003 (ip), vehicle: Klucel (hydroxypropylcellulose) (HPC)) 150 % of control; (dose: 6.2 mg/kg/injection, schedule: Q01DX009 (ip), vehicle: Klucel (hydroxypropylcellulose) (HPC)) 186 % of control; (dose: 8.16 mg/kg/injection, schedule: Q04DX003 (ip), vehicle: Klucel (hydroxypropylcellulose) (HPC)) 172 % of control; (dose: 9.37 mg/kg/injection, schedule: Q01DX009 (ip), vehicle: Klucel (hydroxypropylcellulose) (HPC)) 227 % of control and 259 % of control; (dose: 12.37 mg/kg/injection, schedule: Q04DX003 (ip), vehicle: Klucel (hydroxypropylcellulose) (HPC)) 272 % of control and 220 % of control. In addition, the T/C is, setting by setting: (dose: 14.0 mg/kg/injection, schedule: Q01DX009 (ip), vehicle: Klucel (hydroxypropylcellulose) (HPC)) 91 % of control; (dose: 18.75 mg/kg/injection, schedule: Q04DX003 (ip), vehicle: Klucel (hydroxypropylcellulose) (HPC)) 265 % of control and 268 % of control and 272 % of control; (dose: 28.12 mg/kg/injection, schedule: Q04DX003 (ip), vehicle: Klucel (hydroxypropylcellulose) (HPC)) 300 % of control; (dose: 37.5 mg/kg/injection, schedule: Q01DX009 (ip), vehicle: Klucel (hydroxypropylcellulose) (HPC)) 90 % of control; (dose: 37.5 mg/kg/injection, schedule: Q04DX003 (ip), vehicle: Klucel (hydroxypropylcellulose) (HPC)) 113 % of control.

As to `NC(=O)c1cc(=S)[nH]c2nc(Cl)nc(N)c12`, the T/C (dose: 100.0 mg/kg/injection, schedule: Q04DX002 (ip), vehicle: saline with Tween-80) was 120 % of control.

With `CN(C)c1ccc(C(C[N+](=O)[O-])(c2ccc(N(C)C)cc2)c2ccc(N(C)C)cc2)cc1`, the T/C (dose: 100.0 mg/kg/injection, schedule: Q04DX003 (ip), vehicle: Klucel (hydroxypropylcellulose) (HPC)) was 100 % of control; the T/C (dose: 200.0 mg/kg/injection, schedule: Q04DX003 (ip), vehicle: Klucel (hydroxypropylcellulose) (HPC)) was 90 % of control; the T/C (dose: 400.0 mg/kg/injection, schedule: Q04DX003 (ip), vehicle: Klucel (hydroxypropylcellulose) (HPC)) was 100 % of control.

With `C=CCN(CC=C)CCSC(=S)NCCOC`, the T/C was 95 % of control under setting [2], 100 % of control under setting [3] and 95 % of control under setting [4].

`O=C1N=C2C=CC=CN2C(=O)C1Cc1ccccc1` (stereo unspecified): the T/C is 96 % of control under setting [5], 100 % of control under setting [6] and 104 % of control under setting [7].

In the case of `CC(=N\O)/C(C)=N/O.CC(=N\O)/C(C)=N/O.[Cu]`, the T/C under setting [1] was 100 % of control; the T/C (dose: 6.25 mg/kg/injection, schedule: Q04DX003 (ip), vehicle: Klucel (hydroxypropylcellulose) (HPC)) is 118 % of control; the T/C (dose: 12.5 mg/kg/injection, schedule: Q04DX003 (ip), vehicle: Klucel (hydroxypropylcellulose) (HPC)) is 118 % of control.

Turning to `CCOC(=O)C(Br)C(=O)OCC`, the T/C is 100 % of control under setting [8]; 100 % of control under setting [9]; 110 % of control (dose: 12.5 mg/kg/injection, schedule: Q04DX003 (ip), vehicle: saline); 95 % of control (dose: 25.0 mg/kg/injection, schedule: Q01DX009 (ip), vehicle: saline); 110 % of control (dose: 25.0 mg/kg/injection, schedule: Q04DX003 (ip), vehicle: saline); 86 % of control (dose: 50.0 mg/kg/injection, schedule: Q01DX009 (ip), vehicle: saline). In addition, for the setting “dose: 50.0 mg/kg/injection, schedule: Q04DX003 (ip), vehicle: saline”, the T/C was 105 % of control.

Turning to `COc1cccc(S(=O)c2ccc([N+](=O)[O-])c3no[n+]([O-])c23)c1` (stereo unspecified), the T/C (dose: 15.0 mg/kg/injection, schedule: Q01DX009 (ip), vehicle: saline with Tween-80) was 112 % of control.

`CCCCCCCCC(=O)CCCCC`: the T/C (dose: 100.0 mg/kg/injection, schedule: Q04DX003 (ip), vehicle: saline) is 100 % of control; the T/C (dose: 200.0 mg/kg/injection, schedule: Q04DX003 (ip), vehicle: saline) was 91 % of control; the T/C (dose: 400.0 mg/kg/injection, schedule: Q04DX003 (ip), vehicle: saline) is 95 % of control.

For `c1cc[c]([Pb]([c]2ccccc2)([c]2ccccc2)[n]2cccc2)cc1`, the T/C (dose: 3.12 mg/kg/injection, schedule: Q01DX009 (ip), vehicle: saline) is 90 % of control; the T/C under setting [8] was 109 % of control; the T/C under setting [9] is 109 % of control; the T/C (dose: 21.25 mg/kg/injection, schedule: Q04DX003 (ip), vehicle: Klucel (hydroxypropylcellulose) (HPC)) is 100 % of control; the T/C (dose: 42.5 mg/kg/injection, schedule: Q04DX003 (ip), vehicle: Klucel (hydroxypropylcellulose) (HPC)) is 113 % of control.

With `CCOC(=O)C1CN(c2ccccc2)C(=O)C1=O` (stereo unspecified), the T/C by setting is: (dose: 50.0 mg/kg/injection, schedule: Q01DX009 (ip), vehicle: Klucel (hydroxypropylcellulose) (HPC)) 112 % of control; (dose: 100.0 mg/kg/injection, schedule: Q01DX009 (ip), vehicle: Klucel (hydroxypropylcellulose) (HPC)) 118 % of control; (dose: 200.0 mg/kg/injection, schedule: Q01DX009 (ip), vehicle: Klucel (hydroxypropylcellulose) (HPC)) 110 % of control; (dose: 400.0 mg/kg/injection, schedule: Q01DX009 (ip), vehicle: Klucel (hydroxypropylcellulose) (HPC)) 110 % of control.

On to `CC1CC=CCC1COC(=O)C(=O)OCC1CC=CCC1C` (stereo unspecified), for which the T/C is 105 % of control under setting [5], 105 % of control under setting [6] and 110 % of control under setting [7].

As to `O=C1NC(=O)C(c2ccc(C(F)(F)F)cc2)(c2ccc(C(F)(F)F)cc2)N1`, the T/C runs as follows: (dose: 12.5 mg/kg/injection, schedule: Q01DX009 (ip), vehicle: saline with Tween-80) 104 % of control; (dose: 25.0 mg/kg/injection, schedule: Q01DX009 (ip), vehicle: saline with Tween-80) 90 % of control; under setting [2], 113 % of control; under setting [5], 90 % of control; under setting [6], 90 % of control; under setting [7], 104 % of control.

Turning to `C1=CC(c2ccccc2)N2C(C(c3ccccc3)=N1)C2c1ccccc1` (stereo unspecified), the T/C was 98 % of control (dose: 25.0 mg/kg/injection, schedule: Q04DX003 (ip), vehicle: saline with Tween-80); 94 % of control (dose: 50.0 mg/kg/injection, schedule: Q04DX003 (ip), vehicle: saline with Tween-80); 100 % of control under setting [5]; 103 % of control under setting [6].

Turning to `COc1cc(/C=N/N2CCCCC2)cc(OC)c1OC`, the T/C is 100 % of control under setting [3]; 100 % of control under setting [5]; 90 % of control under setting [4]; 100 % of control under setting [6]; 100 % of control (dose: 400.0 mg/kg/injection, schedule: Q01DX009 (ip), vehicle: saline with Tween-80); 90 % of control under setting [7].

For `Fc1ccc(C(Cl)Cl)cc1`, the T/C (dose: 100.0 mg/kg/injection, schedule: Q01DX009 (ip), vehicle: saline) was 104 % of control; the T/C (dose: 200.0 mg/kg/injection, schedule: Q01DX009 (ip), vehicle: saline) is 109 % of control; the T/C (dose: 400.0 mg/kg/injection, schedule: Q01DX009 (ip), vehicle: saline) is 118 % of control.

In the case of `C[CH2][Sn]([CH2]C)([CH2]C)[NH]S(=O)(=O)c1ccc(C)cc1`, the T/C runs as follows: (dose: 0.39 mg/kg/injection, schedule: Q01DX009 (ip), vehicle: Klucel (hydroxypropylcellulose) (HPC)) 100 % of control; (dose: 0.78 mg/kg/injection, schedule: Q01DX009 (ip), vehicle: Klucel (hydroxypropylcellulose) (HPC)) 115 % of control; (dose: 3.12 mg/kg/injection, schedule: Q01DX001 (ip), vehicle: Klucel (hydroxypropylcellulose) (HPC)) 100 % of control; (dose: 6.25 mg/kg/injection, schedule: Q01DX001 (ip), vehicle: Klucel (hydroxypropylcellulose) (HPC)) 90 % of control; (dose: 12.5 mg/kg/injection, schedule: Q01DX001 (ip), vehicle: Klucel (hydroxypropylcellulose) (HPC)) 90 % of control; (dose: 18.0 mg/kg/injection, schedule: Q01DX001 (ip), vehicle: Klucel (hydroxypropylcellulose) (HPC)) 104 % of control.
